In patent US20140220110A1, “REMOTE LOADING OF SPARINGLY WATER-SOLUBLE DRUGS INTO LIPOSOMES” (ZONEONE PHARMA, INC., priority 2013, published 2014):
≈ marks a conversion by molar mass, not a printed value.

How the values were obtained:
[1] = Remote loading of doxorubicin and 17-DMAG into ammonium sulfate liposomes with and without 25% DMSO; type: physicochemical; details: ammonium sulfate containing liposomes
Text: To test the integrity of the liposomes in 25% DMSO we attempted to remote load the water-soluble weak base drugs doxorubicin and 17-dimethylaminoethylamino-17-demethoxygeldanamycin (17-DMAG) and compared to the same loading without DMSO.

[2] = Remote loading of aripiprazole precipitate into liposomes; type: physicochemical
Experimental: Liposomes (HSPC/Chol/PEG-DSPE 3/2/0.15 mol/mol/mol) containing 250 mM ammonium sulfate or 250 mM sodium sulfate were diluted in 1 mL of 50 mM citric acid, 10% (wt/wt) sucrose, pH 4.0 to a concentration of 6 mM phospholipid. […] Fine precipitates were immediately observed after the drug was added to both liposome samples. The samples were heated at 65° C. for 30 min, the cooled on ice. The samples were filtered through a 0.2 um polyethersulfone syringe filter to remove any drug precipitates, followed by purification on a Sephadex G25 column equilibrated with HBS, pH 6.5 to remove any soluble extraliposome drug. The turbid fraction was collected and analyzed for lipid and drug as described above.

[3] = Water solubility; type: physicochemical
[4] = cited from earlier work

Compound: CO[C@H]1/C=C\C=C(/C)C(=O)NC2=CC(=O)C(NCCN(C)C)=C(C[C@@H](C)C[C@H](OC)[C@H](O)[C@@H](C)/C=C(\C)[C@@H]1OC(N)=O)C2=O [Formulation 17-DMAG, 17-dimethylaminoethylamino-17-demethoxygeldanamycin]
- % Efficiency compared to control of no DMSO [1]: 73.1 ± 1.4%

Compound: O=C1CCc2ccc(OCCCCN3CCN(c4cccc(Cl)c4Cl)CC3)cc2N1 [aripiprazole]
- Output D/L ([2]; (NH4)2SO4 liposomes, input D/L 50 ug/umol): 42.28 ± 0.49 µg/µmol
- Output D/L ([2]; (Na)2SO4 liposomes, input D/L 50 ug/umol): 0.86 ± 0.51 µg/µmol
- loading efficiency ([2]; drug introduced as SBCD complex (from Abilify), same concentration and loading conditions): 68%
- Fold Increase NH4SO4/NaSO4 ([2]; input D/L 50 ug/umol): 49.3
- solubility in water [3]: very insoluble in water

Compound: O=C(O)c1ccc(-n2nc(-c3ccccc3O)nc2-c2ccccc2O)cc1 [deferasirox]
- water solubility [4]: ~38 µg/mL (≈ 102 µM)

Compound: COc1cccc2c1C(=O)c1c(O)c3c(c(O)c1C2=O)C[C@@](O)(C(=O)CO)C[C@@H]3O[C@H]1C[C@H](N)[C@H](O)[C@H](C)O1 [doxorubicin]
- % Efficiency compared to control of no DMSO [1]: 92.7 ± 0.43%
